≈ marks a conversion by molar mass, not a printed value. Where “and” joins values, the source holds several entries; their conditions need not be identical. Identical values can stand only once.
Tests used:
[1] = test system: mouse red blood cells (RBCs); assay: Hemolysis study; type: cell-based; conditions: oligomer concentration giving 10% hemolysis, 1 h, 37° C.
Procedure: After 1 h incubation at 37° C., the mixture was centrifuged at 2000 rpm for 5 min. Aliquots (100 μl) of the supernatant were transferred to a 96-well plate. Hemolytic activity was determined as a function of hemoglobin release by measuring absorbance of the supernatant at 576 nm using a microplate reader. A control solution that contained only PBS was used as a reference for 0% hemolysis. Absorbance of red blood cells lysed with 0.5% Triton-X was taken as 100% hemolysis. The oligomer concentration which results in 10% hemolysis is indicated as HC10 in Table 1. The data were expressed as mean and S.D. of four replicates. % Hemolysis=[OD576 nm (polymer)−OD576 nm (PBS)]/[OD576 nm (Triton-X)−OD576 nm (PBS)]×100%

[2] = Critical micelle concentration; type: physicochemical
[3] = test system: Pseudomonas aeruginosa (ATCC 9027, Gram-negative); assay: Minimum inhibitory concentration, microdilution assay; type: cell-based; conditions: lowest concentration with no visible growth; for MIC P.A.: 24 h
Procedure: (§1) Staphylococcus aureus (ATCC 6538, Gram-positive), Escherichia coli (ATCC 8739, Gram-negative), Pseudomonas aeruginosa (ATCC 9027, Gram-negative), and Candida albicans (ATCC 10231, fungus) were used as representative microorganisms to challenge the antimicrobial functions of the oligomers. All bacteria and fungus were frozen at -80° C., and were grown overnight at 37° C. in Mueller Hinton Broth (MHB, BD Singapore) prior to experiments. Fungus was grown overnight at 22° C. in Yeast Mold Broth (YMB, BD Singapore). […] The plates were incubated at 37° C. for 24 h with constant shaking speed at 300 rpm. […] Medium solution containing microbial cells alone were used as control (100% microbial growth). The assay was performed in four replicates and the experiments were repeated at least two times.

[4] = test system: Escherichia coli (ATCC 8739, Gram-negative); assay: as above; type: cell-based; conditions: lowest concentration with no visible growth; for MIC E.C.: 24 h
Procedure: as §1

[5] = test system: Staphylococcus aureus (ATCC 6538, Gram-positive); assay: as above; type: cell-based; conditions: lowest concentration with no visible growth; for MIC S.A.: 24 h
Procedure: as §1

[6] = test system: Candida albicans (ATCC 10231, fungus); assay: as above; type: cell-based; conditions: for MIC C.A. / MIC: Candida albicans ~10^6 CFU/ml, YMB, room temperature, no visible growth; for MIC50 C.A. (value in brackets): Candida albicans, concentration inhibiting 50% fungal growth; for MIC: ATCC10231
Procedure: as §1, with “The plates were incubated at 37° C. for 24 h with constant shaking speed at 300 rpm.” left out

C. albicans = assay: Checkerboard assay of oligomers with triazoles (FIC); type: cell-based; conditions: Candida albicans; for FIC with Fluconazole: calculated from lowest concentration inhibiting at least 50% growth
Procedure: […]. […] A row and a column in which a serial dilution of each agent was present alone were also prepared for MIC test. Then each solution in the well plate was inoculated with 100 μL of logarithmically grown 10^6 cells/ml C. albicans cells in the 96-well plate. The plate also contained a column with C. albicans only as control (100% cell growth). The cells were incubated at room temperature for 24 h with constant shaking, after which cell growth (i.e. the O.D. at 600 nm) was monitored with a microplate reader (TECAN) Synergy between fluconazole and oligomers was determined by calculating the fractional inhibitory concentration index ([…] was calculated as follows: FIC=(MIColigomer A in combination/MIColigomer A alone)+(MICazole B in combination/MICazole B alone). […] The interaction of selected oligomers with other triazoles such as itraconazole and voriconazole was also investigated using the checkerboard dilution method. For comparison, the interaction of the selected oligomer with a non-triazole antifungal agent […] was also investigated.

[7] = triazole in combination with IDPBX8
[8] = triazole in combination with IDPPX8

Row | Compound | HC10 [1] [µg/mL] | CMC [2] [µg/mL] | MIC P.A. [3] [mg/L] | MIC E.C. [4] [mg/L] | MIC S.A. [5] [mg/L] | MIC C.A. [6] [mg/L] | MIC50 C.A. (value in brackets) [6] | FIC with Fluconazole (C. albicans) | MIC ([3]; ATCC9027, 24 h) [mg/L] | MIC ([4]; ATCC8739, 24 h) [mg/L] | MIC ([5]; ATCC6538, 24 h) [mg/L] | MIC [6] [mg/L] | Alone MIC50 component B (C. albicans; triazole alone) | Combined MIC50 component B (C. albicans; [7]) [mg/L] | Combined MIC50 component B (C. albicans; [8]) [mg/L] | Alone MIC50 component A (C. albicans; oligomer alone) [mg/L] | Combined MIC50 component A (C. albicans; oligomer in combination with Fluconazole) [mg/L] | FIC (C. albicans; oligomer with Fluconazole (Table 2))
1 | CCCCCCCC[n+]1ccn(Cc2ccccc2C[N+]23CC[N+](Cc4ccccc4Cn4cc[n+](CCCCCCCC)c4)(CC2)CC3)c1.[Br-].[Br-].[Br-].[Br-] [IDIO8] | >2000 | 1667 | 250 | 16 | 8 | 62 | (32) μg/ml | 0.25 | – | – | – | – | – | – | – | – | – | –
2 | CCCCCCCC[n+]1ccn(Cc2ccc(C[n+]3ccn(Cc4ccc(C[n+]5ccn(Cc6ccccc6Cn6cc[n+](Cc7ccc(Cn8cc[n+](Cc9ccc(Cn%10cc[n+](CCCCCCCC)c%10)cc9)c8)cc7)c6)c5)cc4)c3)cc2)c1 [IBN-C8, reference compound] | >2000 | 226 | – | – | – | – | – | 2.00 | 16 | 8 | 4 | 16 | – | – | – | – | – | –
3 | CCCCCCCC[n+]1ccn(CC=CC[N+]23CC[N+](CC=CCn4cc[n+](CCCCCCCC)c4)(CC2)CC3)c1.[Br-].[Br-].[Br-].[Br-] [IDIB8] | >2000 | 1829 | 500 | 16 | 8 | >500 | (32) μg/ml | 0.25 | – | – | – | – | – | – | – | – | – | –
4 | itraconazole [reference compound] | – | – | – | – | – | 0.016 to 0.03 | – | – | – | – | – | – | 0.016 mg/L and 0.03 mg/L | 0.015 | 0.004 | – | – | –
5 | CCCCCCCC[n+]1ccn(Cc2ccc(C[N+]34CC[N+](Cc5ccc(Cn6cc[n+](CCCCCCCC)c6)cc5)(CC3)CC4)cc2)c1.[Br-].[Br-].[Cl-].[Cl-] [IDIP8] | >2000 | 985 | 1000 | 16 | 2 | 125 | (8) μg/ml | 0.25 | – | – | – | – | – | – | – | – | – | –
6 | CCCCCCCC[n+]1ccn(Cc2ccc(Cn3cc[n+](Cc4ccc(C[N+]56CC[N+](C/C=C/C[N+]78CC[N+](Cc9ccc(C[n+]%10ccn(Cc%11ccc(Cn%12cc[n+](CCCCCCCC)c%12)cc%11)c%10)cc9)(CC7)CC8)(CC5)CC6)cc4)c3)cc2)c1.[Br-].[Br-].[Br-].[Br-].[Br-].[Br-].[Br-].[Br-] [IIDPPBX8] | >2000 | 727 | 125 | 31 | 8 | 31 | (2-8) μg/ml | 1.00 | – | – | – | – | – | – | – | 2 | 1 | 1.0
7 | CCCCCCCC[N+]12CC[N+](Cc3ccc(C[N+]45CC[N+](CCCCCCCC)(CC4)CC5)cc3)(CC1)CC2.[Br-].[Br-].[Br-].[Br-] [DDP8] | >2000 | 1896 | 2000 | 16 | 16 | 500 | (31) μg/ml | 0.19 | – | – | – | – | – | – | – | – | – | –
8 | c1ccc(Cn2cc[n+](Cc3ccc(C[N+]45CC[N+](Cc6ccc(C[N+]78CC[N+](Cc9ccc(C[n+]%10ccn(Cc%11ccccc%11)c%10)cc9)(CC7)CC8)cc6)(CC4)CC5)cc3)c2)cc1 [IDPPXb] | – | 1860 | >1000 | 62 | 125 | 2000 | (500) μg/ml | 0.5 | – | – | – | – | – | – | – | – | – | –
9 | C[C@@H](c1ncncc1F)[C@](O)(Cn1cncn1)c1ccc(F)cc1F [Voriconazole, voriconazole, reference compound] | – | – | – | – | – | – | – | – | – | – | – | 0.025 to 0.1 (≈ 0.0716 to 0.286 µM) | – | 0.006 | 0.003 | – | – | –
10 | CCCCCCCC[N+]12CC[N+](Cc3ccccc3C[N+]34CC[N+](CCCCCCCC)(CC3)CC4)(CC1)CC2.[Br-].[Br-].[Br-].[Br-] [DDO8] | >2000 | 3038 | 62 | 8 | 4 | 125 | (16) μg/ml | 0.38 | – | – | – | – | – | – | – | – | – | –
11 | C(=C\C[N+]12CC[N+](Cc3ccc(C[n+]4ccn(Cc5ccccc5)c4)cc3)(CC1)CC2)/C[N+]12CC[N+](Cc3ccc(C[n+]4ccn(Cc5ccccc5)c4)cc3)(CC1)CC2 [IDPBXb] | >2000 | 1732 | >1000 | 62 | 125 | >1000 | (1000) μg/ml | – | – | – | – | – | – | – | – | – | – | –
12 | CCCCCCCC[n+]1ccn(Cc2ccc(Cn3cc[n+](C/C=C/C[N+]45CC[N+](C/C=C/C[n+]6ccn(Cc7ccc(Cn8cc[n+](CCCCCCCC)c8)cc7)c6)(CC4)CC5)c3)cc2)c1.[Br-].[Br-].[Br-].[Br-].[Br-].[Br-] [IIDPBX8] | >2000 | 291 | 250 | 62 | 4 | 62 | (8) μg/ml | 0.31 | – | – | – | – | – | – | – | – | – | –

From patent publication US20220022457A1, “Microbicide Ammonium-Imidazolium Oligomers and Their Anti-Fungal Compositions” (AGENCY FOR SCIENCE, TECHNOLOGY AND RESEARCH, priority 2018, published 2022)
